The values that follow come from US5238938A, “Indole derivatives” (Otsuka Pharmaceutical Co., Ltd., priority 1989, dated 1993).

SMILES strings stand for the structures. Converted amounts (≈) assume the structure as drawn.

The test system of this assay is superoxide radicals (O2^-) released from the peritoneal macrophage cells of guinea pig. As to the kind of experiment: Inhibitory effect against superoxide radicals (O2^-) released from the peritoneal macrophage cells of guinea pig by stimulation. The format is cell-based. The following applies: Cavia porcellus, Peritoneal macrophage cell; guinea pig peritoneal macrophages 2×10^6 cells/ml; FMLP 10^-7 M; cytochrome C reduction, OD550; 37° C.; read-out: 50% inhibitory concentration (IC50), superoxide radical release. The method, then: Inhibitory effect against superoxide radicals (O2^-) released from the peritoneal macrophage cells of guinea pig by stimulation
Mineral oil (15 ml) was intraperitoneally administered to a guinea pig, then 96 hours after the administration, the peritoneal macrophage cells were samples.
Superoxide redicals (O2^-) were determined by means of reduction of cytochrome C method according to the procedure described in an article by T. Matsumoto, K. Takeshige and S. Minakami: Biochemical and Biophysical Research Communications, Vol. 88, No. 3, pp. 974-979, (1979).
The peritoneal macrophage cells were added to make the final concentration of 2×10^6 cells/ml into 1 ml of 80 μM-cytochome C solution, and the test compound of indole derivative of the present invention was added thereto to make the test group sample. On the other hand, water was added in place of the indole derivative of the present invention to make the control group sample. Each of the test group sample and the control group sample was subjected to pure incubaiton at 37° C. for 1 minute.
As to the stimulating agent for releasing superoxide radicals (O2^-), FMLP (formylmethionyl leucyl phenylalanine) was added to make the final concentration thereof to 10^-7 M, to each of the test group sample and the control group sample. Then both samples were subjected to additional reaction by incubation for 1 minute.
Difference of the optical absorbances measured at 550 nm (OD550) of both test group and control group samples were determined, and the 50% inhibitory concentration (IC50) was obtained by calculating as the ratio of OD550 of the test group sample to that of the control group sample.
With `COc1nc(CC(C)C)c(=O)[nH]c1Cc1c[nH]c2ccccc12` [Compound A-16], the IC50 worked out at 50 µg/mL (≈ 161 µM).

In the case of `COC1=N[C@@H](CC(C)C)C(=O)N/C1=C\c1c[nH]c2ccccc12` [Compound A-17, (3S,Z)-6-(Indol-3-yl)methylidene-3-isobutyl-5-methoxy-1,2,3,6-tetrahydropyrazin-2-one], the IC50 is 15 µg/mL (≈ 48.2 µM).

On to `CC(C)C[C@H]1C(=O)N[C@@H](Cc2c[nH]c3ccccc23)C(=O)N1O` [Compound A-29a, (3S,6S)-1-Hydroxy-3-(indol-3-yl)methyl-6-isobutylpiperazine-2,5-dione], for which the IC50 stood at 50 µg/mL (≈ 159 µM).

As to `CC(C)C[C@@H]1C(=O)N[C@@H](Cc2c[nH]c3ccccc23)C(=O)N1O` [Compound A-30a, (3S,6R)-1-Hydroxy-3-(indol-3-yl)methyl-6-isobutylpiperazine-2,5-dione], the IC50 amounted to 10 µg/mL (≈ 31.7 µM).

On to `CC(C)Cc1c(Cl)nc(Cc2c[nH]c3ccccc23)c(=O)n1O` [Compound A-38, 5-chloro-1-hydroxy-3-(indol-3-yl)methyl-6-isobutyl-1,2-dihydropyrazin-2-one], for which the IC50 came to 6 µg/mL (≈ 18.1 µM).

In the case of `COc1c(Cc2c[nH]c3ccccc23)nc(Cl)c(CC(C)C)[n+]1[O-]` [Compound A-46, 3-chloro-5-(indol-3-yl)methyl-2-isobutyl-6-methoxypyrazine-1-oxide], the IC50 stood at 30 µg/mL (≈ 86.7 µM).

Take `COC(=O)n1cc(Cc2nc(Cl)c(CC(C)C)n(OC)c2=O)c2ccccc21` [Compound A-47, 5-Chloro-6-isobutyl-3-[(1-methoxycarbonyl)indol-3-yl]methyl-1-methoxy-12,-dihydropyrazin-2-one]: the IC50 was 25 µg/mL (≈ 61.9 µM).

For the compound `CC(C)Cc1c(=O)[nH]c(Cc2c[nH]c3ccccc23)c(N)[n+]1[O-]` [Compound A-62, 5-amino-6-(indol-3-yl)methyl-3-isobutyl-1,2-dihydropyrazin-2-one 4-oxide], the IC50 worked out at 12 µg/mL (≈ 38.4 µM).

For the compound `CC(=O)Nc1c(Cc2c[nH]c3ccccc23)[nH]c(=O)c(CC(C)C)[n+]1[O-]` [Compound A-63, 5-acetamino-6-(indol-3-yl)methyl-3-isobutyl1,2-dihydropyrazin-2-one 4-oxide], the IC50 stood at 30 µg/mL (≈ 84.6 µM).

In the case of `CCc1c(Cc2c[nH]c3ccccc23)[nH]c(=O)c(CC(C)C)[n+]1[O-]` [Compound A-82b, 5-Ethyl-6-(indol-3-yl)methyl-3-isobutyl-1,2-dihydropyrazin-2-one 4-oxide], the IC50 is 12 µg/mL (≈ 36.9 µM).

As to `COc1c(Cc2c[nH]c3ccccc23)[nH]c(=O)c(Cc2ccccc2)[n+]1[O-]` [Compound E-6d, 3-Benzyl-6-(indol-3-yl)methyl-5-methoxy-1,2-dihydropyrazin-2-one 4-oxide], the IC50 turned out to be 5 µg/mL (≈ 13.8 µM).

As to `COc1c(Cc2c[nH]c3ccccc23)[nH]c(=O)c(CC2CCCCC2)[n+]1[O-]` [Compound E-6f, 3-Cyclohexylmethyl-6-(indol-3-yl)methyl-5-methoxy-1,2-dihydropyrazin-2-one 4-oxide], the IC50 came to 4 µg/mL (≈ 10.9 µM).

As for `COc1c(Cc2c[nH]c3ccccc23)[nH]c(=O)c(Cc2c[nH]c3ccccc23)[n+]1[O-]` [Compound E-6g, 3,6-Di(indol-3-yl)methyl-5-methoxy-1,2-dihydropyrazin-2-one 4-oxide], the IC50 worked out at 1.5 µg/mL (≈ 3.75 µM).

`CCOc1c(Cc2c[nH]c3ccccc23)[nH]c(=O)c(CC(C)C)[n+]1[O-]` [Compound E-12, 5-Ethoxy-6-(indol-3-yl)methyl-3-isobutyl-1,2-dihydropyrazin-2-one 4-oxide]: the IC50 turned out to be 8 µg/mL (≈ 23.4 µM).

On to `CC(C)Cc1c(=O)[nH]c(-c2c[nH]c3ccccc23)c(Cl)[n+]1[O-]` [Compound E-30, 5-Chloro-6-(indol-3-yl)-3-isobutyl-1,2-dihydropyrazin-2-one 4-oxide], for which the IC50 is 8 µg/mL (≈ 25.2 µM).

As for `COc1c(Cc2c[nH]c3ccc(F)cc23)[nH]c(=O)c(CC(C)C)[n+]1[O-]` [Compound E-34a, 6-[(5-Fluoro)indol-3-yl]methyl-3-isobutyl-5-methoxy-1,2-dihydropyrazin-2-one 4-oxide], the IC50 came out at 10 µg/mL (≈ 29 µM).

Take `COc1c(Cc2c[nH]c3ccc(Br)cc23)[nH]c(=O)c(CC(C)C)[n+]1[O-]` [Compound E-34c, 6-[(5-Bromo)indol-3-yl]methyl-3-isobutyl-5-methoxy-1,2-dihydropyrazin-2-one 4-oxide]: the IC50 came out at 5 µg/mL (≈ 12.3 µM).

Consider `COc1c(Cc2c[nH]c3c(C)cccc23)[nH]c(=O)c(CC(C)C)[n+]1[O-]` [Compound E-34f, 3-Isobutyl-5-methoxy-6-[(7-methyl)indol-3-yl]methyl-1,2-dihydropyrazin-2-one 4-oxide], for which the IC50 is 7 µg/mL (≈ 20.5 µM).

As for `COc1ccc2[nH]cc(Cc3[nH]c(=O)c(CC(C)C)[n+]([O-])c3OC)c2c1` [Compound E-34h, 3-Isobutyl-5-methoxy-6-[(5-methoxy)indol-3-yl]methyl-1,2-dihydropyrazin-2-one 4-oxide], the IC50 is 5 µg/mL (≈ 14 µM).

Regarding `COc1c(Cc2c[nH]c3ccc(O)cc23)[nH]c(=O)c(CC(C)C)[n+]1[O-]` [Compound E-34j, 6-[(5-Hydroxy)indol-3-yl]methyl-3-isobutyl-5-methoxy-1,2-dihydropyrazin-2-one 4-oxide], the IC50 was found to be 10 µg/mL (≈ 29.1 µM).

Regarding `COc1ccc2[nH]c(C)c(Cc3[nH]c(=O)c(CC(C)C)[n+]([O-])c3OC)c2c1` [Compound E-34k, 3-Isobutyl-5-methoxy-6-[(5-methoxy-2-methyl)indol-3-yl]methyl-1,2-dihydropyrazin-2-one 4-oxide], the IC50 stood at 2 µg/mL (≈ 5.38 µM).

As to `COc1c(Cn2ccc3ccccc32)[nH]c(=O)c(CC(C)C)[n+]1[O-]` [Compound E-36p, 6-(Indol-1-yl)methyl-3-isobutyl-5-methoxy-1,2-dihydropyrazin-2-one 4-oxide], the IC50 came to 8 µg/mL (≈ 24.4 µM).

Take `CC(C)Cc1c(=O)[nH]c(Cc2c[nH]c3ccccc23)c(OC(C)C)[n+]1[O-]` [Compound E-46a, 6-(Indol-3-yl)methyl-3-isobutyl-5-isopropoxy-1,2-dihydroipyrazin-2-one 4-oxide]: the IC50 came to 3 µg/mL (≈ 8.44 µM).

Regarding `CC(C)Cc1c(=O)[nH]c(Cc2c[nH]c3ccccc23)c(Cl)[n+]1[O-]` [Compound E-57a, 5-Chloro-6-(indol-3-yl)methyl-3-isobutyl-1,2-dihydropyrazin-2-one 4-oxide], the IC50 stood at 10 µg/mL (≈ 30.1 µM).

As for `CSc1c(Cc2c[nH]c3ccccc23)[nH]c(=O)c(CC(C)C)[n+]1[O-]` [Compound E-57c, 6-(Indol-3-yl)methyl-3-isobutyl-5-methylthio-1,2-dihydropyrazin-2-one 4-oxide], the IC50 is 10 µg/mL (≈ 29.1 µM).

Consider `CC(C)Cc1c(=O)[nH]c(Cc2c[nH]c3ccccc23)c(S(C)(=O)=O)[n+]1[O-]` [Compound E-57d, 6-(Indol-3-yl)methyl-3-isobutyl-5-methylsulfonyl-1,2-dihydropyrazin-2-one 4-oxide], for which the IC50 is 10 µg/mL (≈ 26.6 µM).

On to `CC(C)Cc1c(=O)[nH]c(Cc2c[nH]c3ccccc23)c([S+](C)[O-])[n+]1[O-]` (stereo not drawn) [Compound E-58, 6-(Indol-3-yl)methyl-3-isobutyl-5-methylsulfinyl-1,2-dihydropyrazin-2-one 4-oxide], for which the IC50 came out at 6 µg/mL (≈ 16.7 µM).

On to `COc1c(Cc2cn(C)c3ccccc23)nc(OCc2ccccc2)c(CC(C)C)[n+]1[O-]` [Compound E-67a, 3-Benzyloxy-2-isobutyl-5-[(1-methyl)indol-3-yl]methyl-6-methoxypyrazine 1-oxide], for which the IC50 amounted to 10 µg/mL (≈ 23.2 µM).

On to `CC(C)C[C@@H]1C(=O)N(C)[C@@H](Cc2c[nH]c3ccccc23)C(=O)N1O` [Compound E-72a, (3S,6R)-1-Hydroxy-3-(indol-3-yl)methyl-6-isobutyl-4-methylpiperazine-2,5-dione], for which the IC50 was determined as 0.8 µg/mL (≈ 2.43 µM).

As for `CC(C)C[C@@H]1C(=O)N(C)[C@@H](Cc2cn(C)c3ccccc23)C(=O)N1O` [Compound E-73a, (3S,6R)-1-Hydroxy-6-isobutyl-4-methyl-3-[(1-methyl)indol-3-yl]methylpiperazine-2,5-dione], the IC50 was 2 µg/mL (≈ 5.82 µM).
